Source: patent US20260242419A1, “A CYCLIC PEPTIDE FOR TRAPPING INTERLEUKIN-1 BETA” (Merck Sharp & Dohme LLC, priority 2023, published 2026)
Where two headings read alike, the source gives them in different places. Starred links: 1 amine or outer side, 2 acyl side, 3 side chain; linkers in the order of their positions; H or OH if unused. Non-standard residues stand in square brackets, D forms with d. Residues, ends and D or L forms follow the SMILES beside them. *: point of attachment. Trp(4-Cl)(βS-Me) = C[C@@H](c1c[nH]c2cccc(Cl)c12)[C@H](N)C(=O)O; dPro(4R-(4-pyridylmethyl)) = O=C(O)[C@H]1C[C@@H](Cc2ccncc2)CN1; Trp(βS-Me,4-F) = C[C@@H](c1c[nH]c2cccc(F)c12)[C@H](N)C(=O)O; X42 = O=C([C@H]1[C@@H](Cc2ccc(-c3cncnc3)cc2)CCN1[*:1])[*:2]; Bip(4'-CONH2) = NC(=O)c1ccc(-c2ccc(C[C@H](N)C(=O)O)cc2)cc1; Bip(4'-COOH) = N[C@@H](Cc1ccc(-c2ccc(C(=O)O)cc2)cc1)C(=O)O; X43 = Cc1nocc1-c1ccc(C[C@H]2CCN([*:1])[C@H]2C(=O)[*:2])cc1; Ala(1-bicyclo(1.1.1)pentyl) = N[C@@H](CC12CC(C1)C2)C(=O)O; dPro(4R-Bzl(4-F)) = O=C(O)[C@H]1C[C@@H](Cc2ccc(F)cc2)CN1; X20 = O=C([C@H]1C[C@@H](Cc2ccc(Cl)cc2)CN1[*:1])[*:2]; Ala(pyrimidin-5-yl) = N[C@@H](Cc1cncnc1)C(=O)O; Phe(4-COOH) = N[C@@H](Cc1ccc(C(=O)O)cc1)C(=O)O; Ala(2-pyrazinyl) = N[C@@H](Cc1cnccn1)C(=O)O; Phe(3-Cl) = N[C@@H](Cc1cccc(Cl)c1)C(=O)O; Pro(cis-4-F) = O=C(O)[C@@H]1C[C@H](F)CN1; Ala(4-THP) = N[C@@H](CC1CCOCC1)C(=O)O; AEF = NCCOc1ccc(C[C@H](N)C(=O)O)cc1; cisHyp = O=C(O)[C@@H]1C[C@H](O)CN1; d(αMeD) = C[C@@](N)(CC(=O)O)C(=O)O; Pyrazinecarbonyl = O=C(c1cnccn1)*; 4Pal = N[C@@H](Cc1ccncc1)C(=O)O; αMeD = C[C@](N)(CC(=O)O)C(=O)O; d(αMeS) = C[C@@](N)(CO)C(=O)O; Dab = NCC[C@H](N)C(=O)O; Aib = CC(C)(N)C(=O)O; Sar = CNCC(=O)O

Target: T1, IL-1β (Homo sapiens, UniProt P01584)
T1 construct: purchased BioLegend 579404
Test: IL-6 assay in MRC5 cells: inhibition of IL-1β induced IL-6 secretion (AlphaLISA)
Format: cell-based
Conditions: inhibition of IL-1β induced IL-6 secretion in MRC5 cells, read-out: MRC5 IC50
Procedure, shortened: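 Compound was pre-incubated 1 h at ambient temperature with recombinant human IL-1β at 2λ EC80 before adding human lung fibroblast MRC5 cells (3000/well) in EMEM with 0.025% BSA. After overnight culture at 37 °C, 5% CO2, secreted IL-6 in conditioned medium was measured by AlphaLISA; IC50 from 4-parameter logistic fits.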

T1 sequence (P01584 117-269): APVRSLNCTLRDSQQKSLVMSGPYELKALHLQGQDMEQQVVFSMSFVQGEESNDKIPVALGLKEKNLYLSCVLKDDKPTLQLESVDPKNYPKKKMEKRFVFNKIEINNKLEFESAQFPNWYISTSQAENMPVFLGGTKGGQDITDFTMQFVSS

SMILES | IC50 | IC50 (compound pre-incubated 1 hour with recombinant human IL-1β)
C[C@@H](c1c[nH]c2cccc(Cl)c12)[C@@H]1NC(=O)[C@@H]2C[C@H](F)CN2C(=O)CNC(=O)[C@H](Cc2ccc(C(=O)O)cc2)NC(=O)[C@H](Cc2ccncc2)NC(=O)[C@H](Cc2ccc(-c3ccc(C(=O)O)cc3)cc2)NC(=O)[C@H]2C[C@@H](Cc3ccc(F)cc3)CN2C(=O)CNC(=O)[C@H](CCN)NC(=O)[C@H](CCC(N)=O)NC(=O)[C@H](Cc2cncnc2)NC(=O)C(C)(C)NC(=O)[C@H](Cc2c[nH]c3ccccc23)NC(=O)[C@H](CO)NC(=O)C(C)(C)NC1=O [Example 139] (cyclo([Bip(4'-COOH)][4Pal][Phe(4-COOH)]G[Pro(cis-4-F)][Trp(4-Cl)(βS-Me)][Aib]SW[Aib][Ala(pyrimidin-5-yl)]Q[Dab]G[dPro(4R-Bzl(4-F))])) | 34 pM | 
C[C@@H](c1c[nH]c2cccc(F)c12)[C@@H]1NC(=O)[C@@H]2C[C@H](F)CN2C(=O)CNC(=O)[C@H](Cc2ccc(C(=O)O)cc2)NC(=O)[C@H](Cc2ccncc2)NC(=O)[C@H](Cc2ccc(-c3ccc(C(=O)O)cc3)cc2)NC(=O)[C@H]2C[C@@H](Cc3ccc(F)cc3)CN2C(=O)CNC(=O)[C@H](CCN)NC(=O)[C@H](CCC(N)=O)NC(=O)[C@H](Cc2cnccn2)NC(=O)[C@@](C)(CC(=O)O)NC(=O)[C@H](Cc2c[nH]c3ccccc23)NC(=O)[C@H](CO)NC(=O)C(C)(C)NC1=O [Example 321] (cyclo([Bip(4'-COOH)][4Pal][Phe(4-COOH)]G[Pro(cis-4-F)][Trp(βS-Me,4-F)][Aib]SW[d(αMeD)][Ala(2-pyrazinyl)]Q[Dab]G[dPro(4R-Bzl(4-F))])) | 15 pM | 
C[C@@H](c1c[nH]c2cccc(F)c12)[C@@H]1NC(=O)[C@@H]2C[C@H](O)CN2C(=O)CNC(=O)[C@H](Cc2ccc(C(=O)O)cc2)NC(=O)[C@H](Cc2ccncc2)NC(=O)[C@H](Cc2ccc(-c3ccc(C(=O)O)cc3)cc2)NC(=O)[C@H]2C[C@@H](Cc3ccncc3)CN2C(=O)CN(C)C(=O)[C@H](CCN)NC(=O)[C@H](CCC(N)=O)NC(=O)[C@H](CC2CCOCC2)NC(=O)[C@](C)(CC(=O)O)NC(=O)[C@H](Cc2c[nH]c3ccccc23)NC(=O)[C@H](CO)NC(=O)C(C)(C)NC1=O [Example 210] (cyclo([Bip(4'-COOH)][4Pal][Phe(4-COOH)]G[cisHyp][Trp(βS-Me,4-F)][Aib]SW[αMeD][Ala(4-THP)]Q[Dab][Sar][dPro(4R-(4-pyridylmethyl))])) | 29 pM | 
C[C@@H](c1c[nH]c2cccc(F)c12)[C@@H]1NC(=O)[C@@H]2C[C@H](O)CN2C(=O)CNC(=O)[C@H](Cc2ccc(C(=O)O)cc2)NC(=O)[C@H](Cc2ccncc2)NC(=O)[C@H](Cc2ccc(-c3ccc(C(=O)O)cc3)cc2)NC(=O)[C@H]2C[C@@H](Cc3ccncc3)CN2C(=O)CNC(=O)[C@H](CCN)NC(=O)[C@H](CCC(N)=O)NC(=O)[C@H](Cc2cncnc2)NC(=O)[C@@](C)(CO)NC(=O)[C@H](Cc2c[nH]c3ccccc23)NC(=O)[C@H](CO)NC(=O)C(C)(C)NC1=O [Example 195] (cyclo([Bip(4'-COOH)][4Pal][Phe(4-COOH)]G[cisHyp][Trp(βS-Me,4-F)][Aib]SW[d(αMeS)][Ala(pyrimidin-5-yl)]Q[Dab]G[dPro(4R-(4-pyridylmethyl))])) | 13 pM | 
CC(=O)NCCOc1ccc(C[C@@H]2NC(=O)[C@H]3C[C@@H](Cc4ccncc4)CN3C(=O)CNC(=O)[C@H](CCN)NC(=O)[C@H](CCC(N)=O)NC(=O)[C@H](Cc3cccc(Cl)c3)NC(=O)C(C)(C)NC(=O)[C@H](Cc3c[nH]c4ccccc34)NC(=O)[C@H](CCC(=O)O)NC(=O)C(C)(C)NC(=O)[C@H]([C@@H](C)c3c[nH]c4cccc(F)c34)NC(=O)[C@@H]3C[C@H](F)CN3C(=O)CNC(=O)[C@H](Cc3ccc(C(=O)O)cc3)NC(=O)[C@H](Cc3ccncc3)NC2=O)cc1 [Example 309] (cyclo([AEF](Ac)[4Pal][Phe(4-COOH)]G[Pro(cis-4-F)][Trp(βS-Me,4-F)][Aib]EW[Aib][Phe(3-Cl)]Q[Dab]G[dPro(4R-(4-pyridylmethyl))])) | 18 pM | 
C[C@@H](c1c[nH]c2cccc(F)c12)[C@@H]1NC(=O)[C@@H]2C[C@H](F)CN2C(=O)CNC(=O)[C@H](Cc2ccc(C(=O)O)cc2)NC(=O)[C@H](Cc2ccncc2)NC(=O)[C@H](Cc2ccc(-c3ccc(C(=O)O)cc3)cc2)NC(=O)[C@H]2C[C@@H](Cc3ccc(F)cc3)CN2C(=O)CNC(=O)[C@H](CO)NC(=O)[C@H](CCC(N)=O)NC(=O)[C@H](CCCNC(=N)N)NC(=O)C(C)(C)NC(=O)[C@H](Cc2c[nH]c3ccccc23)NC(=O)[C@H](CCC(=O)O)NC(=O)C(C)(C)NC1=O [Example 32] (cyclo([Bip(4'-COOH)][4Pal][Phe(4-COOH)]G[Pro(cis-4-F)][Trp(βS-Me,4-F)][Aib]EW[Aib]RQSG[dPro(4R-Bzl(4-F))])) | 49 pM | 
Cc1nocc1-c1ccc(C[C@H]2CCN3C(=O)CNC(=O)[C@H](CCN)NC(=O)[C@H](CCC(N)=O)NC(=O)[C@H](Cc4cncnc4)NC(=O)C(C)(C)NC(=O)[C@H](Cc4c[nH]c5ccccc45)NC(=O)[C@H](CCC(=O)O)NC(=O)C(C)(C)NC(=O)[C@H]([C@@H](C)c4c[nH]c5cccc(F)c45)NC(=O)[C@@H]4C[C@H](F)CN4C(=O)CNC(=O)[C@H](Cc4ccc(C(=O)O)cc4)NC(=O)[C@H](Cc4ccncc4)NC(=O)[C@H](Cc4ccc(-c5ccc(C(=O)O)cc5)cc4)NC(=O)[C@@H]23)cc1 [Example 62] (cyclo([Bip(4'-COOH)][4Pal][Phe(4-COOH)]G[Pro(cis-4-F)][Trp(βS-Me,4-F)][Aib]EW[Aib][Ala(pyrimidin-5-yl)]Q[Dab]G[X43])) | 21 pM | 
C[C@@H](c1c[nH]c2cccc(F)c12)[C@@H]1NC(=O)[C@@H]2C[C@H](F)CN2C(=O)CNC(=O)[C@H](Cc2ccc(C(=O)O)cc2)NC(=O)[C@H](Cc2ccncc2)NC(=O)[C@H](Cc2ccc(-c3ccc(C(=O)O)cc3)cc2)NC(=O)[C@H]2C[C@@H](Cc3ccncc3)CN2C(=O)CNC(=O)[C@H](CCN)NC(=O)[C@H](CCC(N)=O)NC(=O)[C@H](CC2CCOCC2)NC(=O)[C@@](C)(CO)NC(=O)[C@H](Cc2c[nH]c3ccccc23)NC(=O)[C@H](CO)NC(=O)C(C)(C)NC1=O [Example 364] (cyclo([Bip(4'-COOH)][4Pal][Phe(4-COOH)]G[Pro(cis-4-F)][Trp(βS-Me,4-F)][Aib]SW[d(αMeS)][Ala(4-THP)]Q[Dab]G[dPro(4R-(4-pyridylmethyl))])) | 15 pM | 
C[C@@H](c1c[nH]c2cccc(F)c12)[C@@H]1NC(=O)[C@@H]2C[C@H](F)CN2C(=O)CNC(=O)[C@H](Cc2ccc(C(=O)O)cc2)NC(=O)[C@H](Cc2ccncc2)NC(=O)[C@H](Cc2ccc(-c3ccc(C(N)=O)cc3)cc2)NC(=O)[C@H]2C[C@@H](Cc3ccncc3)CN2C(=O)CNC(=O)[C@H](CCN)NC(=O)[C@H](CCC(N)=O)NC(=O)[C@H](Cc2cncnc2)NC(=O)[C@@](C)(CO)NC(=O)[C@H](Cc2c[nH]c3ccccc23)NC(=O)[C@H](CO)NC(=O)C(C)(C)NC1=O [Example 339] (cyclo([Bip(4'-CONH2)][4Pal][Phe(4-COOH)]G[Pro(cis-4-F)][Trp(βS-Me,4-F)][Aib]SW[d(αMeS)][Ala(pyrimidin-5-yl)]Q[Dab]G[dPro(4R-(4-pyridylmethyl))])) | 24 pM | 
C[C@@H](c1c[nH]c2cccc(F)c12)[C@@H]1NC(=O)[C@@H]2C[C@H](F)CN2C(=O)CNC(=O)[C@H](Cc2ccc(C(=O)O)cc2)NC(=O)[C@H](Cc2ccncc2)NC(=O)[C@H](Cc2ccc(-c3ccc(C(=O)O)cc3)cc2)NC(=O)[C@H]2C[C@@H](Cc3ccc(Cl)cc3)CN2C(=O)CNC(=O)[C@H](CCN)NC(=O)[C@H](CCC(N)=O)NC(=O)[C@H](Cc2cncnc2)NC(=O)[C@@](C)(CC(=O)O)NC(=O)[C@H](Cc2c[nH]c3ccccc23)NC(=O)[C@H](CO)NC(=O)C(C)(C)NC1=O [Example 329] (cyclo([Bip(4'-COOH)][4Pal][Phe(4-COOH)]G[Pro(cis-4-F)][Trp(βS-Me,4-F)][Aib]SW[d(αMeD)][Ala(pyrimidin-5-yl)]Q[Dab]G[X20])) | 9 pM | 
C[C@@H](c1c[nH]c2cccc(F)c12)[C@@H]1NC(=O)[C@@H]2C[C@H](F)CN2C(=O)CNC(=O)[C@H](Cc2ccc(C(=O)O)cc2)NC(=O)[C@H](CC23CC(C2)C3)NC(=O)[C@H](Cc2ccc(-c3ccc(C(=O)O)cc3)cc2)NC(=O)[C@H]2C[C@@H](Cc3ccncc3)CN2C(=O)CNC(=O)[C@H](CCN)NC(=O)[C@H](CCC(N)=O)NC(=O)[C@H](CC2CCOCC2)NC(=O)[C@](C)(CC(=O)O)NC(=O)[C@H](Cc2c[nH]c3ccccc23)NC(=O)[C@H](CO)NC(=O)C(C)(C)NC1=O [Example 193] (cyclo([Bip(4'-COOH)][Ala(1-bicyclo(1.1.1)pentyl)][Phe(4-COOH)]G[Pro(cis-4-F)][Trp(βS-Me,4-F)][Aib]SW[αMeD][Ala(4-THP)]Q[Dab]G[dPro(4R-(4-pyridylmethyl))])) | 11 pM | 
C[C@@H](c1c[nH]c2cccc(F)c12)[C@@H]1NC(=O)[C@@H]2C[C@H](F)CN2C(=O)CNC(=O)[C@H](Cc2ccc(C(=O)O)cc2)NC(=O)[C@H](Cc2ccncc2)NC(=O)[C@H](Cc2ccc(OCCNC(=O)c3cnccn3)cc2)NC(=O)[C@H]2C[C@@H](Cc3ccncc3)CN2C(=O)CNC(=O)[C@H](CCN)NC(=O)[C@H](CCC(N)=O)NC(=O)[C@H](Cc2cncnc2)NC(=O)C(C)(C)NC(=O)[C@H](Cc2c[nH]c3ccccc23)NC(=O)[C@H](CO)NC(=O)C(C)(C)NC1=O [Example 303] (cyclo([AEF](Pyrazinecarbonyl)[4Pal][Phe(4-COOH)]G[Pro(cis-4-F)][Trp(βS-Me,4-F)][Aib]SW[Aib][Ala(pyrimidin-5-yl)]Q[Dab]G[dPro(4R-(4-pyridylmethyl))])) |  | 16 pM
C[C@@H](c1c[nH]c2cccc(F)c12)[C@@H]1NC(=O)[C@@H]2C[C@H](F)CN2C(=O)CNC(=O)[C@H](Cc2ccc(C(=O)O)cc2)NC(=O)[C@H](Cc2ccncc2)NC(=O)[C@H](Cc2ccc(-c3ccc(C(=O)O)cc3)cc2)NC(=O)[C@H]2[C@@H](Cc3ccc(-c4cncnc4)cc3)CCN2C(=O)CNC(=O)[C@H](CCN)NC(=O)[C@H](CCC(N)=O)NC(=O)[C@H](Cc2cncnc2)NC(=O)C(C)(C)NC(=O)[C@H](Cc2c[nH]c3ccccc23)NC(=O)[C@H](CCC(=O)O)NC(=O)C(C)(C)NC1=O [Example 53] (cyclo([Bip(4'-COOH)][4Pal][Phe(4-COOH)]G[Pro(cis-4-F)][Trp(βS-Me,4-F)][Aib]EW[Aib][Ala(pyrimidin-5-yl)]Q[Dab]G[X42])) | 18 pM | 
